Laboratory results: ChEMBL document CHEMBL3774347, “Docking and Linking of Fragments To Discover Jumonji Histone Demethylase Inhibitors” (J Med Chem, 2016)

Tests used:
[1] = biological target: T1, Lysine-specific demethylase 4C (Homo sapiens, UniProt Q9H3R0); assay: Inhibition of N-terminal His6-tagged KDM4C (1 to 352 residues) (unknown origin) expressed in Escherichia coli Rosetta 2(DE3)pLysS using biotinylated peptide/ 2 uM alpha-ketoglutarate as substrate/cofactor preincubated for 15 mins followed by substrate addition measured after 15 mins by alphascreen assay
T1 sequence (Q9H3R0 whole entry): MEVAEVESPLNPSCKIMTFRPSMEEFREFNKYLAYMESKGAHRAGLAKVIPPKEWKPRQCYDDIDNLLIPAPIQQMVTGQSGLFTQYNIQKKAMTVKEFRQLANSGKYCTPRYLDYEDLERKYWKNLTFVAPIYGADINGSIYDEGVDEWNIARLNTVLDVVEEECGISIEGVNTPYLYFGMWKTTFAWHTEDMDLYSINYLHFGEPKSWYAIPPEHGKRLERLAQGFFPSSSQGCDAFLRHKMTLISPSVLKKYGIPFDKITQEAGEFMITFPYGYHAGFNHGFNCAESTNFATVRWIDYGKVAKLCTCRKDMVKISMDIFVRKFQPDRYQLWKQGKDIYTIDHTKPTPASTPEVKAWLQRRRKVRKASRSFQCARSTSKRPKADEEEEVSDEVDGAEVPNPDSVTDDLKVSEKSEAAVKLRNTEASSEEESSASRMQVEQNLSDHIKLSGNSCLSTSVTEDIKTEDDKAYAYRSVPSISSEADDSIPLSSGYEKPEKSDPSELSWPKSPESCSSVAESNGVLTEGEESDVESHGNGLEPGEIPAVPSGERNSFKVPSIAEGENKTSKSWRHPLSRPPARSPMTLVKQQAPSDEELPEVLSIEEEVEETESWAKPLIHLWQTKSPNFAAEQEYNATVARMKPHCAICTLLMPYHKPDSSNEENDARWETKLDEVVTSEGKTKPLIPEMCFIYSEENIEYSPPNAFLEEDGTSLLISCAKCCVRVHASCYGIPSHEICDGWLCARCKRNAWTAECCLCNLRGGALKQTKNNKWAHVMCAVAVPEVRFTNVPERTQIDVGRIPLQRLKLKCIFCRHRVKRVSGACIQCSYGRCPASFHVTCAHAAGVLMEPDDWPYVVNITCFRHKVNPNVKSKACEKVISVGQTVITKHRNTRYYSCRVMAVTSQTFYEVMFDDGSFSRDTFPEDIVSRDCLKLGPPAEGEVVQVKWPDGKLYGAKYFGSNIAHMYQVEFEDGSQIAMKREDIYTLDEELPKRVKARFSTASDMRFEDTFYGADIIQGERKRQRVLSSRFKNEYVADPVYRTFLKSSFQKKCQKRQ

[2] = biological target: T1, Lysine-specific demethylase 4C; assay: Inhibition of N-terminal His6-tagged KDM4C (1 to 352 residues) (unknown origin) expressed in Escherichia coli Rosetta 2(DE3)pLysS using biotinylated histone H3 (1 to 21 residues) lysine 9 trimethylated peptide/50 uM alpha-ketoglutarate as substrate/cofactor measured after 45 mins by TR-FRET assay; conditions: read-out: IC50
[3] = biological target: T1, Lysine-specific demethylase 4C; assay: Inhibition of N-terminal His6-tagged KDM4C (1 to 352 residues) (unknown origin) expressed in Escherichia coli Rosetta 2(DE3)pLysS using ARTKQTARK(Me3)STGGKA peptide/100 uM alpha-ketoglutarate as substrate/cofactor incubated for 45 mins by MALDI assay
[4] = biological target: T1, Lysine-specific demethylase 4C; assay: Competitive inhibition of N-terminal His6-tagged KDM4C (1 to 352 residues) (unknown origin) expressed in Escherichia coli Rosetta 2(DE3)pLysS using 50 uM ARK(Me3)STGGK peptide/50 uM alpha-ketoglutarate as substrate/cofactor by FDH coupling-based Lineweaver-Burk plot analysis
[5] = biological target: T1, Lysine-specific demethylase 4C; assay: Competitive inhibition of N-terminal His6-tagged KDM4C (1 to 352 residues) (unknown origin) expressed in Escherichia coli Rosetta 2(DE3)pLysS using 250 uM ARK(Me3)STGGK peptide/50 uM alpha-ketoglutarate as substrate/cofactor by FDH coupling-based Lineweaver-Burk plot analysis
[6] = biological target: T1, Lysine-specific demethylase 4C
[7] = biological target: T1, Lysine-specific demethylase 4C; assay: Competitive inhibition of N-terminal His6-tagged KDM4C (1 to 352 residues) (unknown origin) expressed in Escherichia coli Rosetta 2(DE3)pLysS using 50 uM ARK(Me3)STGGK peptide/5 uM alpha-ketoglutarate as substrate/cofactor by FDH coupling-based Lineweaver-Burk plot analysis

| Compound | IC50 [1] [µM] | IC50 [2] [µM] | IC50 [3] [µM] | IC50 [4] [µM] | IC50 [5] [µM] | Ki [6] [µM] | IC50 [7] [µM] |
| --- | --- | --- | --- | --- | --- | --- | --- |
| CC(=O)Nc1ccc(O)c(-c2cc(C(=O)O)ccn2)c1 | 15 | 40 | 63 | – | – | – | – |
| Cc1cc(C(=O)Nc2ccc(O)c(-c3cc(C(=O)O)ccn3)c2)no1 | 5.5 | 5 | 16 | – | – | – | – |
| COc1cccc(CC(=O)Nc2ccc(O)c(-c3cc(C(=O)O)ccn3)c2)c1 | 9.9 | 1.5 | 7.3 | – | – | – | – |
| COCC(=O)Nc1ccc(O)c(-c2cc(C(=O)O)ccn2)c1 | 3.8 | 7.4 | 47 | 14.2 | 14.9 | 0.683 | 3.3 |
| O=C(O)c1ccnc(-c2cc(NC(=O)c3ccc(O)cc3)ccc2O)c1 | 12 | 2.6 | 5.9 | 4.8 | 5.5 | 0.0432 | 1.1 |
